# Assay results published in patent publication US10219516B2, “Molecules having pesticidal utility, and intermediates, compositions, and processes, related thereto” (priority 2015, dated 2019).
# Experiments:
# Format in all cases: in vivo
# [1] = tested on: Beet Armyworm (Spodoptera exigua, LAPHEG); assay: Bioassay on Beet Armyworm (BAW), 128-well diet tray assay; details: Species BAW (Beet Armyworm), read-out: BAW (Biological Results, rating)
# Summary of the method: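 Diet in each of eight wells received 50 μg/cm^2 of test molecule (90:10 acetone-water, dried), then one to five second-instar larvae were added. Mortality (%) was scored after five to seven days at 25° C. under 14:10 light-dark and averaged across the wells.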
# [2] = tested on: Cabbage Looper (Trichoplusia ni, TRIPNI); assay: Bioassay on Cabbage Looper (CL), 128-well diet tray assay; details: Trichoplusia ni; Species CL (Cabbage Looper); read-out: CL (Biological Results, rating)
# Summary of the method: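 Test molecule is dissolved in 90:10 acetone-water and applied at 50 μg/cm^2 onto artificial diet, then dried. One to five second-instar larvae go into each of eight wells. Trays, sealed but vented, stay at 25° C., 14:10 light-dark, five to seven days, after which mortality is averaged.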
# [3] = tested on: Yellow Fever Mosquito (Aedes aegypti, AEDSAE); assay: Bioassay on Yellow Fever Mosquito (YFM), 96-well plate larval assay; details: Species YFM (Yellow Fever Mosquito)
# Summary of the method: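 Compound stocks at 4000 ppm in DMSO were diluted with 90:10 water/acetone, and 15 μL aliquots were dispensed into six replicate plates. About 1-day-old larvae in liver-powder water were added per well. Plates were covered and held at room temperature for 3 days before each well was scored for mortality.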
SMILES,pest or weed control at 50 µg/cm2 [1],pest or weed control at 50 µg/cm2 [2],"YFM (Biological Results, rating) [3]"
"O=C(Nc1ccc(F)cc1)c1cc(NC(=O)[C@@H]2[C@@H](c3cc(Cl)cc(Cl)c3)C2(Cl)Cl)ccc1Cl [F166, 2-Chloro-5-((1S,3S)-2,2-dichloro-3-(3,5-dichlorophenyl)cyclopropane-1-carboxamido)-N-(4-fluorophenyl)benzamide]",50 to 100%,50 to 100%,B (More than 0-Less than 80)
"CN(C(=O)c1cc(NC(=O)C2C(c3cc(Cl)cc(Cl)c3)C2(Cl)Br)ccc1Cl)c1ccc(F)cc1 (stereo not drawn) [F167, 5-(trans)-2-Bromo-2-chloro-3-(3,5-dichlorophenyl)cyclopropanecarboxamido)-2-chloro-N-(4-fluorophenyl)-N-methylbenzamide]",50 to 100%,50 to 100%,B (More than 0-Less than 80)
"CN(C(=O)c1cc(NC(=O)[C@H]2[C@H](c3cc(Cl)cc(Cl)c3)C2(Cl)Cl)ccc1Cl)c1ccc(F)cc1 [F169, 2-Chloro-5-((1R,3R)-2,2-dichloro-3-(3,5-dichlorophenyl)cyclopropane-1-carboxamido)-N-(4-fluorophenyl)-N-methylbenzamide]",50 to 100%,50 to 100%,A (80-100)
"CN(C(=O)c1cc(NC(=O)[C@@H]2[C@@H](c3cc(Cl)cc(Cl)c3)C2(Cl)Cl)ccc1Cl)c1ccc(F)cc1 [F170, 2-Chloro-5-((1S,3S)-2,2-dichloro-3-(3,5-dichlorophenyl)cyclopropane-1-carboxamido)-N-(4-fluorophenyl)-N-methylbenzamide]",50 to 100%,50 to 100%,A (80-100)
"O=C(Nc1cc2[nH]ccc2cc1Br)c1cc(NC(=O)C2C(c3cc(Cl)cc(Cl)c3)C2(Cl)Cl)ccc1Cl (stereo not drawn) [F172, N-(5-Bromo-1H-indol-6-yl)-2-chloro-5-(trans)-2,2-dichloro-3-(3,5-dichlorophenyl)cyclopropane-1-carboxamido)benzamide]",50 to 100%,50 to 100%,B (More than 0-Less than 80)
"O=C(Nc1cc(F)c2cc[nH]c2c1)c1cc(NC(=O)C2C(c3cc(Cl)cc(Cl)c3)C2(Cl)Cl)ccc1Cl (stereo not drawn) [F173, 2-Chloro-5-(trans)-2,2-dichloro-3-(3,5-dichlorophenyl)cyclopropane-1-carboxamido)-N-(4-fluoro-1H-indol-6-yl)benzamide]",50 to 100%,50 to 100%,B (More than 0-Less than 80)
"O=C(Nc1ccc2cc[nH]c2n1)c1cc(NC(=O)C2C(c3cc(Cl)cc(Cl)c3)C2(Cl)Cl)ccc1Cl (stereo not drawn) [F178, 2-Chloro-5-(trans)-2,2-dichloro-3-(3,5-dichlorophenyl)cyclopropane-1-carboxamido)-N-(1H-pyrrolo[2,3-b]pyridin-6-yl)benzamide]",50 to 100%,50 to 100%,B (More than 0-Less than 80)
"O=C(Nc1ccc(F)cc1F)c1cc(NC(=O)[C@H]2[C@H](c3cc(Cl)cc(Cl)c3)C2(Cl)Cl)ccc1Cl [F185, 2-Chloro-5-((1R,3R)-2,2-dichloro-3-(3,5-dichlorophenyl)cyclopropane-1-carboxamido)-N-(2,4-difluorophenyl)benzamide]",50 to 100%,50 to 100%,B (More than 0-Less than 80)
"O=C(Nc1ccc(F)cc1F)c1cccc(NC(=O)C2C(c3cc(Cl)cc(Cl)c3)C2(Cl)Cl)c1 (stereo not drawn) [F186, 3-(trans)-2,2-Dichloro-3-(3,5-dichlorophenyl)cyclopropane-1-carboxamido)-N-(2,4-difluorophenyl)benzamide]",50 to 100%,50 to 100%,B (More than 0-Less than 80)
"O=C(Nc1ccc(F)cc1F)c1cc(NC(=O)C2C(c3cc(Cl)cc(Cl)c3)C2(Cl)Br)ccc1Cl (stereo not drawn) [F187, 5-(trans)-2-Bromo-2-chloro-3-(3,5-dichlorophenyl)cyclopropane-1-carboxamido)-2-chloro-N-(2,4-difluorophenyl)benzamide]",50 to 100%,50 to 100%,A (80-100)
"N#Cc1cc(Cl)cc(C2C(C(=O)Nc3ccc(Cl)c(C(=O)Nc4ccc(F)cc4F)c3)C2(Cl)Cl)c1 (stereo not drawn) [F188, 2-Chloro-5-(trans)-2,2-dichloro-3-(3-chloro-5-cyanophenyl)cyclopropane-1-carboxamido)-N-(2,4-difluorophenyl)benzamide]",50 to 100%,50 to 100%,B (More than 0-Less than 80)
"O=C(Nc1ccc(F)cc1)c1cc(NC(=O)[C@@H]2[C@@H](c3ccc(Cl)c(Cl)c3)C2(Cl)Cl)ccc1Cl [F208, 2-Chloro-5-((1S,3S)-2,2-dichloro-3-(3,4-dichlorophenyl)cyclopropane-1-carboxamido)-N-(4-fluorophenyl)benzamide]",50 to 100%,50 to 100%,A (80-100)
"O=C(Nc1ccc(F)cc1)c1cc(NC(=O)[C@H]2[C@H](c3ccc(Cl)c(Cl)c3)C2(Cl)Cl)ccc1Cl [F209, 2-Chloro-5-((1R,3R)-2,2-dichloro-3-(3,4-dichlorophenyl)cyclopropane-1-carboxamido)-N-(4-fluorophenyl)benzamide]",50 to 100%,50 to 100%,A (80-100)
"O=C(Nc1ccc(F)cc1F)c1cc(NC(=O)[C@@H]2[C@@H](c3ccc(Cl)c(Cl)c3)C2(Cl)Cl)ccc1Cl [F210, 2-Chloro-5-((1S,3S)-2,2-dichloro-3-(3,4-dichlorophenyl)cyclopropane-1-carboxamido)-N-(2,4-difluorophenyl)benzamide]",50 to 100%,50 to 100%,A (80-100)
"O=C(Nc1ccc(F)cc1F)c1cc(NC(=O)[C@H]2[C@H](c3ccc(Cl)c(Cl)c3)C2(Cl)Cl)ccc1Cl [F211, 2-Chloro-5-((1R,3R)-2,2-dichloro-3-(3,4-dichlorophenyl)cyclopropane-1-carboxamido)-N-(2,4-difluorophenyl)benzamide]",50 to 100%,50 to 100%,A (80-100)
"O=C(Nc1ccc(F)cc1)c1cc(NC(=O)C2C(c3cc(Cl)cc(Cl)c3)[C@@H]2Cl)ccc1Cl (stereo partly drawn) [F212, 2-Chloro-5-((2S)-2-chloro-3-(3,5-dichlorophenyl)cyclopropane-1-carboxamido)-N-(4-fluorophenyl)benzamide]",50 to 100%,50 to 100%,A (80-100)
"O=C(Nc1ccc(F)cc1)c1cc(NC(=O)C2C(c3cc(Cl)cc(Cl)c3)[C@H]2Cl)ccc1Cl (stereo partly drawn) [F213, 2-Chloro-5-((2R)-2-chloro-3-(3,5-dichlorophenyl)cyclopropane-1-carboxamido)-N-(4-fluorophenyl)benzamide]",50 to 100%,50 to 100%,A (80-100)
"O=C(Nc1ccc(F)cc1F)c1cc(NC(=O)C2C(c3cc(Cl)cc(Cl)c3)[C@@H]2Cl)ccc1Cl (stereo partly drawn) [F214, 2-Chloro-5-((2S)-2-chloro-3-(3,5-dichlorophenyl)cyclopropane-1-carboxamido)-N-(2,4-difluorophenyl)benzamide]",50 to 100%,50 to 100%,B (More than 0-Less than 80)
"O=C(Nc1ccc(F)cc1F)c1cc(NC(=O)C2C(c3cc(Cl)cc(Cl)c3)[C@H]2Cl)ccc1Cl (stereo partly drawn) [F215, 2-Chloro-5-((2R)-2-chloro-3-(3,5-dichlorophenyl)cyclopropane-1-carboxamido)-N-(2,4-difluorophenyl)benzamide]",50 to 100%,50 to 100%,B (More than 0-Less than 80)
"CC1(c2cc(Cl)cc(Cl)c2)C(C(=O)Nc2ccc(Cl)c(C(=O)Nc3ccc(F)cc3)c2)C1(Cl)Cl (stereo not drawn) [F251, 2-Chloro-5-trans-(2,2-dichloro-3-(3,5-dichlorophenyl)-3-methylcyclopropane-1-carboxamido)-N-(4-fluorophenyl)benzamide]",50 to 100%,50 to 100%,A (80-100)
"CC1(c2cc(Cl)cc(Cl)c2)C(C(=O)Nc2ccc(Cl)c(C(=O)Nc3ccc(F)cc3F)c2)C1(Cl)Cl (stereo not drawn) [F252, 2-Chloro-5-trans-(2,2-dichloro-3-(3,5-dichlorophenyl)-3-methylcyclopropane-1-carboxamido)-N-(2,4-difluorophenyl)benzamide]",50 to 100%,50 to 100%,A (80-100)
"Cc1cc(NC(=O)OC(C)(C)C)ccc1NC(=O)c1cc(NC(=O)[C@H]2[C@H](c3cc(Cl)cc(Cl)c3)C2(Cl)Cl)ccc1Cl [F275, tert-Butyl (4-(2-chloro-5-((1R,3R)-2,2-dichloro-3-(3,5-dichlorophenyl)cyclopropane-1-carboxamido)benzamido)-3-methylphenyl)carbamate]",50 to 100%,50 to 100%,A (80-100)
